The results in this text go back to BindingDB's records for patent US12091399 (Boehringer Ingelheim International, 2024).

This experiment deals with Plasma kallikrein (Homo sapiens, UniProt P03952). As to the kind of experiment: Evaluation of the Inhibition of PKK Using an Endpoint Assay. How it is done: Subsequently, PPACK II (Calbiochem) was added as a stop solution to achieve a final concentration of 1 μM and fluorescence was measured using an Envision Reader (PerkinElmer) with the wavelength excitation setting of 355 nm and the wavelength emission setting of 460 nm.
Sequence of Plasma kallikrein (P03952 20-390 limits assumed): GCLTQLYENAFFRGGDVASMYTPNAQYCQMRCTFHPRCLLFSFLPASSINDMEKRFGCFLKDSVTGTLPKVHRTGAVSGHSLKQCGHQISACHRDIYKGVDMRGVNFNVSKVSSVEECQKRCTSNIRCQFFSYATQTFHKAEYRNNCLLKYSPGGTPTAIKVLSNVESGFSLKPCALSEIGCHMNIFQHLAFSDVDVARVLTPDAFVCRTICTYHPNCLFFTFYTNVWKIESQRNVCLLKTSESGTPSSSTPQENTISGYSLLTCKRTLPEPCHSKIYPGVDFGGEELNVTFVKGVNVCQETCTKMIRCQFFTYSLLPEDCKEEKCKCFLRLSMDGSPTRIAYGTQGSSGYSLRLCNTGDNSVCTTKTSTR
Sequence of Plasma kallikrein (P03952 391-638 limits assumed): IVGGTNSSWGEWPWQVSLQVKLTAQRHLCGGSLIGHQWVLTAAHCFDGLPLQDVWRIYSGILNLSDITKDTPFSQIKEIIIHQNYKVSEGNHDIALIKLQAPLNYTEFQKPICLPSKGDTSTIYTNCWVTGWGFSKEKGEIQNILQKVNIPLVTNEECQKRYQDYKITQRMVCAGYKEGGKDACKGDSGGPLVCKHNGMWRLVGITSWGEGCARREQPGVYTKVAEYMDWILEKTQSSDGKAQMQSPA

As a reminder, the IC50 is the concentration that inhibits the measured activity by half. For `Cc1nc(N2C[C@@H]3[C@@H](N)[C@@H]3C2)ccc1Cn1cc(C(=O)NCc2cc(Cl)ccc2-n2cnnn2)cn1` [US12091399, Example 58], the IC50 is 38 nM.
